Values joined by “and” are separate entries in the source; they are usually repeats but may differ in a detail not shown here. Equal values may be shown once.
Test system: onychomycosis of the toenail
Experiment: Phase II clinical study: overall clinical efficacy
Assay type: in vivo, human
Method: A Phase II clinical pharmacology study was conducted in subjects with onychomycosis of the toenail. The study investigated the pharmacokinetics, efficacy and safety of three different dosing regimens of fosravuconazole. […] The three treatment groups were as follows: • a.
The efficacy endpoints were: (1) overall clinical efficacy; (2) changes over time in efficacy; (3) confirmation of elements of dermatophytes by direct microscopy; and (4) results of identification of dermatophytes by the polymerase chain reaction (PCR) method.
Overall clinical efficacy (cure rate and response rate) at Weeks 48 and 24 after the study treatment initiation for the efficacy analysis population (per protocol set, PPS) are presented in Tables 1 and 2 below. Overall clinical efficacy (cure rate and response rate) at Weeks 48 and 24 after the study treatment initiation for the full analysis set (FAS) are presented in Tables 3 and 4 below.

[1] = 100 mg once daily, Week 24, FAS
[2] = 100 mg once daily, Week 24, PPS
[3] = 100 mg once daily, Week 48, FAS
[4] = 100 mg once daily, Week 48, PPS
[5] = 200 mg pulse treatment, Week 24, FAS
[6] = 200 mg pulse treatment, Week 24, PPS
[7] = 200 mg pulse treatment, Week 48, FAS
[8] = 200 mg pulse treatment, Week 48, PPS
[9] = 400 mg pulse treatment, Week 24, FAS
[10] = 400 mg pulse treatment, Week 24, PPS
[11] = 400 mg pulse treatment, Week 48, FAS
[12] = 400 mg pulse treatment, Week 48, PPS

Compound: C[C@@H](c1nc(-c2ccc(C#N)cc2)cs1)[C@@](Cn1cncn1)(OCOP(=O)(O)O)c1ccc(F)cc1F [fosravuconazole, 4-[2-[(1R,2R)-2-(2,4-difluorophenyl)-1-methyl-2-[(phosphonooxy)methoxy]-3-(1H-1,2,4-triazol-1-yl)propyl]-4-thiazolyl]benzo-nitrile]
- Cure rate and 95% CI [1]: 0.0 (0.0, 13.2) %
- Cured [1]: 0
- Failed [1]: 0
- Improved [1]: 6
- Markedly improved [1]: 20
- Response rate and 95% CI [1]: 76.9 (56.4, 91.0) %
- Slightly improved [1]: 0
- Cure rate and 95% CI [2]: 0.0 (0.0, 13.7) %
- Cured [2]: 0
- Failed [2]: 0
- Improved [2]: 6
- Markedly improved [2]: 19
- Response rate and 95% CI [2]: 76.0 (54.9, 90.6) %
- Slightly improved [2]: 0
- Cure rate and 95% CI [3]: 38.5 (20.3, 59.4) %
- Cured [3]: 10
- Failed [3]: 0
- Improved [3]: 1
- Markedly improved [3]: 15
- Response rate and 95% CI [3]: 96.2 (80.4, 99.9) %
- Slightly improved [3]: 0
- Cure rate and 95% CI [4]: 40.0% and 40.0 (21.2, 61.3) %
- Cured [4]: 10
- Failed [4]: 0
- Improved [4]: 1
- Markedly improved [4]: 14
- Response rate and 95% CI [4]: 96.0% and 96.0 (79.7, 99.8) %
- Slightly improved [4]: 0
- Cure rate and 95% CI [5]: 3.6 (0.1, 18.3) %
- Cured [5]: 1
- Failed [5]: 0
- Improved [5]: 10
- Markedly improved [5]: 16
- Response rate and 95% CI [5]: 60.7 (40.6, 78.4) %
- Slightly improved [5]: 1
- Cure rate and 95% CI [6]: 4.0 (0.2, 20.3) %
- Cured [6]: 1
- Failed [6]: 0
- Improved [6]: 9
- Markedly improved [6]: 14
- Response rate and 95% CI [6]: 60.0 (38.7, 78.8) %
- Slightly improved [6]: 1
- Cure rate and 95% CI [7]: 32.0 (15.0, 53.5) %
- Cured [7]: 8
- Failed [7]: 0
- Improved [7]: 4
- Markedly improved [7]: 13
- Response rate and 95% CI [7]: 84.0 (64.0, 95.4) %
- Slightly improved [7]: 0
- Cure rate and 95% CI [8]: 27.3% and 27.3 (10.8, 50.2) %
- Cured [8]: 6
- Failed [8]: 0
- Improved [8]: 4
- Markedly improved [8]: 12
- Response rate and 95% CI [8]: 81.8% and 81.8 (59.8, 94.8) %
- Slightly improved [8]: 0
- Cure rate and 95% CI [9]: 0.0 (0.0, 11.2) %
- Cured [9]: 0
- Failed [9]: 0
- Improved [9]: 11
- Markedly improved [9]: 17
- Response rate and 95% CI [9]: 54.8 (36.1, 72.6) %
- Slightly improved [9]: 3
- Cure rate and 95% CI [10]: 0.0 (0.0, 11.2) %
- Cured [10]: 0
- Failed [10]: 0
- Improved [10]: 11
- Markedly improved [10]: 17
- Response rate and 95% CI [10]: 54.8 (36.1, 72.6) %
- Slightly improved [10]: 3
- Cure rate and 95% CI [11]: 40.7 (22.4, 61.2) %
- Cured [11]: 11
- Failed [11]: 0
- Improved [11]: 4
- Markedly improved [11]: 12
- Response rate and 95% CI [11]: 85.2 (66.3, 95.8) %
- Slightly improved [11]: 0
- Cure rate and 95% CI [12]: 40.7% and 40.7 (22.4, 61.2) %
- Cured [12]: 11
- Failed [12]: 0
- Improved [12]: 4
- Markedly improved [12]: 12
- Response rate and 95% CI [12]: 85.2% and 85.2 (66.3, 95.8) %
- Slightly improved [12]: 0
